The target in assay [1] is T1, hCA I (Homo sapiens, UniProt P00915).
T1 construct: made in house
The experiment in a line: stopped-flow CO2 hydrase assay, hCA I. In kind it is biochemical. Particulars: mean from three determinations, errors 5–10%. As to the method:
(§1) An Applied Photophysics stopped-flow instrument has been used for assaying the CA catalysed CO2 hydration activity. […] The CO2 concentrations ranged from 1.7 to 17 mM for the determination of the kinetic parameters and inhibition constants. In particular, CO2 was bubbled in distilled deionised water for 30 min till saturation. A CO2 kit (Sigma, Milan, Italy) was used to measure the concentration in serially diluted solutions from the saturated one at the same temperature. […] The uncatalyzed rates were determined in the same manner and subtracted from the total observed rates. Stock solutions of inhibitor (1 µM) were prepared in distilled-deionised water and dilutions up to 0.1 nM were done thereafter with the assay buffer. […] The inhibition constants were obtained by non-linear least-squares methods using PRISM 3 and the Cheng-Prusoff equation[29], and represent the average from at least three different determinations. All recombinant CA isoforms were obtained in-house as previously reported[30]^,[31].

The target in assay [2] is T2, hCA II (Homo sapiens, UniProt P00918).
T2 construct: made in house
The experiment in a line: stopped-flow CO2 hydrase assay, hCA II. In kind it is biochemical. The settings on record: mean from three determinations, errors 5–10%. The protocol: as §1

Assay [3] deals with T3, hCA IX (Homo sapiens, UniProt Q16790).
T3 construct: made in house
Nature of the assay: stopped-flow CO2 hydrase assay, hCA IX. It counts as biochemical. Particulars: mean from three determinations, errors 5–10%. As to the method: as §1

In assay [4] the target is T4, hCA XII (Homo sapiens, UniProt O43570).
T4 construct: made in house
T4 sequence (O43570 25-354): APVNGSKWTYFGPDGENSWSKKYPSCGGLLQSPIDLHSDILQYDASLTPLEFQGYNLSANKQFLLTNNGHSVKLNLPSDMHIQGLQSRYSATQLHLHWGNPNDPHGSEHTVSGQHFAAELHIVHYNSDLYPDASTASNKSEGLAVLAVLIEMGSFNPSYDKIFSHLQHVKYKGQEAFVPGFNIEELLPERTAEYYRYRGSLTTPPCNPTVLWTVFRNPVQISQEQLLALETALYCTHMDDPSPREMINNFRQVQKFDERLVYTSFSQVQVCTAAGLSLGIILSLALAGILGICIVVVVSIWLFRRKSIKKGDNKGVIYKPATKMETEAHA
Nature of the assay: stopped-flow CO2 hydrase assay, hCA XII. The settings on record: mean from three determinations, errors 5–10%. It counts as biochemical. As to the method:
as §1

The target in assay [5] is T1, hCA I. The arrangement: method as in PMID 25407638. Particulars: lead compound, earlier report; cited from earlier work.
Assay [6] has as its target T2, hCA II. The arrangement: method as in PMID 25407638. The settings on record: lead compound, earlier report; cited from earlier work.
The target in assay [7] is T3, hCA IX. Also noted: method as in PMID 25407638. The settings on record: lead compound, earlier report; cited from earlier work.
Assay [8] addresses T4, hCA XII. Also noted: method as in PMID 25407638. Particulars: lead compound, earlier report; cited from earlier work.

SMILES strings stand for the structures. Where two headings read alike, the source gives them in different places.

T1 sequence (P00915 whole entry): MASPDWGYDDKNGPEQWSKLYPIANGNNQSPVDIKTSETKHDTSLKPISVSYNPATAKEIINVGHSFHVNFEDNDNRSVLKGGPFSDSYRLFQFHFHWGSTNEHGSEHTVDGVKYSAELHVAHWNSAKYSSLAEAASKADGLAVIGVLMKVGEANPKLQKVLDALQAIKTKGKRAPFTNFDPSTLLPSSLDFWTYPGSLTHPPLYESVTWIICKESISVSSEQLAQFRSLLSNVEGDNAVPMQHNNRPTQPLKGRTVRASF

In the case of `COC(=O)c1ccccc1OCc1ccccc1` [Compound 44], the Ki at hCA I [1], on hCA II [2], on hCA IX [3] and on hCA XII [4] was over 100 µM throughout.
On to `COC(=O)c1ccccc1NCc1ccccc1` [Compound 45], for which the Ki on hCA I [1], at hCA II [2], on hCA IX [3] and on hCA XII [4] was over 100 µM each time.
Turning to `COC(=O)c1ccccc1CCc1ccccc1` [Compound 46], the inhibition constant (Ki) at hCA I [1], on hCA II [2], on hCA IX [3] and on hCA XII [4] was over 100 µM in each case.
Take `NC(=O)c1ccccc1NCc1ccccc1` [Compound 48]: the inhibition constant Ki on hCA I [1], on hCA II [2], at hCA IX [3] and at hCA XII [4] was over 100 µM in each case.
Regarding `NC(=O)c1ccccc1CCc1ccccc1` [Compound 49], the inhibitory constant (Ki) at hCA I [1], on hCA II [2], on hCA IX [3] and on hCA XII [4] was over 100 µM in each case.
On to `NC(=O)c1ccccc1NC(=O)Cc1ccccc1` [Compound 50], for which the Ki on hCA I [1], at hCA II [2], on hCA IX [3] and on hCA XII [4] was over 100 µM each time.
Consider `O=C(NO)c1ccccc1NCc1ccccc1` [Compound 51], for which the Ki at hCA I [1], at hCA II [2], at hCA IX [3] and on hCA XII [4] was over 100 µM each time.
Take `CC(=O)c1ccccc1OCc1ccccc1` [Compound 52]: the inhibition constant Ki at hCA I [1], on hCA II [2], at hCA IX [3] and at hCA XII [4] was over 100 µM in each case.
For `CC(=O)c1ccccc1NCc1ccccc1` [Compound 53], the inhibitory constant (Ki) on hCA I [1], at hCA II [2], on hCA IX [3] and at hCA XII [4] was over 100 µM throughout.
As for `O=C(O)c1ccccc1[S+]([O-])Cc1ccccc1` (stereo not shown) [lead compound, 2-(benzylsulfinyl)benzoic acid], the Ki (usually the dissociation constant of the complex between target and ligand, obtained from inhibition or displacement) on hCA I [5] is over 10 µM; at hCA II [6], 0.15 µM; on hCA IX [7], 1.29 µM; on hCA XII [8] it was over 10 µM.

(Values after PMC6713143, “Design, synthesis and biological activity of selective hCAs inhibitors based on 2-(benzylsulfinyl)benzoic acid scaffold” (Journal of Enzyme Inhibition and Medicinal Chemistry, 2019).)
